Laboratory results published in patent US20190029257A1, “APPLICATION FOR HERBICIDE-TOLERANT PROTEIN” (BEIJING DABEINONG TECHNOLOGY GROUP CO., LTD., priority 2016, published 2019).

Legend:
Assay type in all cases: in vivo
[1] = test system: At chloroplastic ALT-1-01 T1 plants; assay: Herbicide tolerance of Arabidopsis thaliana T1 plants (spray, resistance classes counted); details: 18 g ai/ha (1x Hal.); number of plants 14 days after spraying; Total 31
Excerpt: (§1) T1 transformants were initially selected from the background of untransformed seeds using a glufosinate selection scheme. About 40000 T1 seeds were screened, and 380 T1 positive transformants (PAT gene) were identified with a transformation efficiency of about 0.95%. The plants that were transformed with the recombinant expression vector DBN100632 were Arabidopsis thaliana plants having an ALT-1-01 nucleotide sequence located in the cytoplasm introduced (At cytoplasmic ALT-1-01), and the plants that were transformed with the recombinant expression vector DBN100631 were Arabidopsis thaliana plants having an ALT-1-01 nucleotide sequence located in the chloroplast introduced (At chloroplastic ALT-1-01); the plants that were transformed with the recombinant expression vector DBN100634 were Arabidopsis thaliana plants having an ALT-2-01 nucleotide sequence located in the cytoplasm introduced (At cytoplasmic ALT-2-01), and the plants that were transformed with the recombinant expression vector DBN100633 were Arabidopsis thaliana plants having an ALT-2-01 nucleotide sequence located in the chloroplast introduced (At chloroplastic ALT-2-01); and the plants that were transformed with the recombinant expression vector DBN100636 were Arabidopsis thaliana plants having an ALT-3-01 nucleotide sequence located in the cytoplasm introduced (At cytoplasmic ALT-3-01), and the plants that were transformed with the recombinant expression vector DBN100635 were Arabidopsis thaliana plants having an ALT-3-01 nucleotide sequence located in the chloroplast introduced (At chloroplastic ALT-3-01). The herbicide tolerance effects of At cytoplasmic ALT-1-01 T1 plants, At chloroplastic ALT-1-01 T1 plants, At cytoplasmic ALT-2-01 T1 plants, At chloroplastic ALT-2-01 T1 plants, At cytoplasmic ALT-3-01 T1 plants, At chloroplastic ALT-3-01 T1 plants and wild-type Arabidopsis thaliana plants on halosulfuron-methyl were detected (14 days after sowing), respectively.
(§2) […] Plants were counted for the resistance situations 14 days after spraying: those having a consistent growth status with the blank solvent (water) group after 14 days were classified as highly resistant plants, those having a bolting height less than ½ of that of the blank solvent (water) group after 14 days were classified as moderately resistant plants, those still not capable of bolting after 14 days were classified as poorly resistant plants, and those dead after 14 days were classified as non-resistant plants. Since each Arabidopsis thaliana T1 plant was an independent transformation event, a significant difference in individual T1 responses could be expected at a given dose.
as §2, with “situation” for “situations”

[2] = test system: At chloroplastic ALT-3-01 T1 plants; assay: as above; details: 18 g ai/ha (1x Hal.); number of plants 14 days after spraying; Total 30
Excerpt: as §1, §2
as §2, with “situation” for “situations”

[3] = test system: At cytoplasmic ALT-1-01 T1 plants; assay: as above; details: 18 g ai/ha (1x Hal.); number of plants 14 days after spraying; Total 31
Excerpt: as §1, §2
as §2, with “situation” for “situations”

[4] = test system: At cytoplasmic ALT-2-01 T1 plants; assay: as above; details: 18 g ai/ha (1x Hal.); number of plants 14 days after spraying; Total 28
Excerpt: as §1, §2
as §2, with “situation” for “situations”

[5] = test system: At cytoplasmic ALT-3-01 T1 plants; assay: as above; details: 18 g ai/ha (1x Hal.); number of plants 14 days after spraying; Total 28
Excerpt: as §1, §2
as §2, with “situation” for “situations”

[6] = test system: all the transformed Arabidopsis thaliana T1 plants (ALT-1, ALT-2 and ALT-3); assay: Herbicide tolerance of Arabidopsis thaliana T1 plants; details: 34 g ai/ha; summary of Table 1 and FIG. 4
Excerpt: At cytoplasmic ALT-1-01 T1 plants, At chloroplastic ALT-1-01 T1 plants, At cytoplasmic ALT-2-01 T1 plants, At chloroplastic ALT-2-01 T1 plants, At cytoplasmic ALT-3-01 T1 plants, At chloroplastic ALT-3-01 T1 plants and wild-type Arabidopsis thaliana plants were sprayed with halosulfuron-methyl (34 g ai/ha, 1-fold field concentration) and a blank solvent (water), respectively. Plants were counted for the resistance situations 14 days after spraying: those having a consistent growth status with the blank solvent (water) group after 14 days were classified as highly resistant plants, those having a bolting height less than ½ of that of the blank solvent (water) group after 14 days were classified as moderately resistant plants, those still not capable of bolting after 14 days were classified as poorly resistant plants, and those dead after 14 days were classified as non-resistant plants. Since each Arabidopsis thaliana T1 plant was an independent transformation event, a significant difference in individual T1 responses could be expected at a given dose.
At cytoplasmic ALT-1-01 T1 plants, At chloroplastic ALT-1-01 T1 plants, At cytoplasmic ALT-2-01 T1 plants, At chloroplastic ALT-2-01 T1 plants, At cytoplasmic ALT-3-01 T1 plants, At chloroplastic ALT-3-01 T1 plants and wild-type Arabidopsis thaliana plants in Example 4 were sprayed with iodosulfuron-methyl (10 g ai/ha, 1-fold field concentration), mesosulfuron (14 g ai/ha, 1-fold field concentration) and oxasulfuron (60 g ai/ha, 1-fold field concentration), respectively, in addition to halosulfuron-methyl (34 g ai/ha, 1-fold field concentration) and the blank solvent (water). Plants were counted for the resistance situation 14 days after spraying: those having a consistent growth status with the blank solvent (water) group after 14 days were classified as highly resistant plants, those having a bolting height less than ½ of that of the blank solvent (water) group after 14 days were classified as moderately resistant plants, those still not capable of bolting after 14 days were classified as poorly resistant plants, and those dead after 14 days were classified as non-resistant plants. Since each Arabidopsis thaliana T1 plant was an independent transformation event, a significant difference in individual T1 responses could be expected at a given dose.

COC(=O)c1c(Cl)nn(C)c1S(=O)(=O)NC(=O)Nc1nc(OC)cc(OC)n1 [halosulfuron-methyl, 3-chlorine-5-(4,6-dimethoxypyrimidine-2-aminocarbonylaminosulphonyl)-1-methylpyrazole-4-carboxylic acid methyl ester]
Highly resistant [1]: 1 | Moderately resistant [1]: 2 | Non-resistant [1]: 7 | Poorly resistant [1]: 5 | Highly resistant [2]: 1 | Moderately resistant [2]: 6 | Non-resistant [2]: 5 | Poorly resistant [2]: 5 | Moderately resistant [3]: 6 | Non-resistant [3]: 15 | Poorly resistant [3]: 5 | Highly resistant [4]: 1 | Moderately resistant [4]: 6 | Non-resistant [4]: 5 | Poorly resistant [4]: 4 | Highly resistant [5]: 1 | Moderately resistant [5]: 6 | Non-resistant [5]: 5 | Poorly resistant [5]: 5 | tolerance of the plants to the herbicide [6]: conferred halosulfuron-methyl herbicide tolerance to individual Arabidopsis thaliana plants
